This note sets out measurements from ChEMBL document CHEMBL4680219, “Structure-thermodynamics-relationships of hepatitis C viral NS3 protease inhibitors” (Eur J Med Chem, 2020).

The nature of test [1]: Binding affinity to HCV NS3/4a protease by isothermal titration calorimetry. Further details: species or system Hepacivirus hominis.
The nature of test [2]: Inhibition of HCV NS3/4a protease using biotin-DDIVPCSMSY[125I]TW as substrate by radiometric assay. On the set-up: species or system Hepacivirus hominis.

In the case of `C=CC1C[C@@]1(NC(=O)[C@@H]1C[C@@H](Oc2cc(-c3ccccc3)nc3ccccc23)CN1C(=O)[C@H](C)NC(=O)OC(C)(C)C)C(=O)O` (some centres undefined), in test [1], the affinity, expressed as Kd, was 2630 nM.
Molecule `C=CC1C[C@@]1(NC(=O)[C@@H]1C[C@@H](Oc2cc(-c3ccccc3)nc3ccccc23)CN1C(=O)[C@@H](NC(=O)OC(C)(C)C)C(C)(C)C)C(=O)O` (some centres undefined) gave a Kd in test [1] of 100 nM.
Same read-out and setting: next, `C=CC1C[C@@]1(NC(=O)[C@@H]1C[C@@H](Oc2cc(-c3ccccc3)nc3ccccc23)CN1C(=O)[C@H](CC)NC(=O)OC(C)(C)C)C(=O)O` (some centres undefined): 900 nM; `C=CC1C[C@@]1(NC(=O)[C@@H]1C[C@@H](Oc2ccnc(-c3ccccc3)c2)CN1C(=O)[C@@H](NC(=O)OC(C)(C)C)C(C)(C)C)C(=O)O` (some centres undefined): 830 nM; `C=CC1C[C@@]1(NC(=O)[C@@H]1C[C@@H](Oc2cc(-c3ccccc3)nc3ccccc23)CN1C(=O)CNC(=O)OC(C)(C)C)C(=O)O` (some centres undefined): 77000 nM.
Turning to `C=CC1C[C@@]1(NC(=O)[C@@H]1C[C@@H](Oc2ccnc3cc(OC)ccc23)CN1C(=O)[C@@H](NC(=O)OC(C)(C)C)C(C)(C)C)C(=O)O` (some centres undefined), the Ki in test [2] is 50 nM. The Kd in test [1] was 180 nM.
On to `C=CC1C[C@@]1(NC(=O)[C@@H]1C[C@@H](Oc2ccncc2)CN1C(=O)[C@@H](NC(=O)OC(C)(C)C)C(C)(C)C)C(=O)O` (some centres undefined), for which the Ki in test [2] is 29000 nM. The Kd in test [1] is 13500 nM.
`C=CC1C[C@@]1(NC(=O)[C@@H]1C[C@@H](Oc2cc(-c3ccccc3)nc3cc(OC)ccc23)CN1C(=O)[C@@H](NC(=O)OC(C)(C)C)C(C)(C)C)C(=O)O` (some centres undefined): the Ki in test [2] stood at 20 nM. The molecule further registered a Kd in test [1] of 19 nM.
The like results for `C=CC1C[C@@]1(NC(=O)[C@@H]1C[C@@H](Oc2ccnc3ccccc23)CN1C(=O)[C@@H](NC(=O)OC(C)(C)C)C(C)(C)C)C(=O)O` (some centres undefined) were, in that order, 140 nM and 190 nM.
With `C=CC1C[C@@]1(NC(=O)[C@@H]1C[C@@H](Oc2cc(-c3ccccc3)nc3ccccc23)CN1C(=O)[C@@H](NC(=O)OC(C)(C)C)C(C)C)C(=O)O` (some centres undefined), the Kd in test [1] amounted to 250 nM.
